From PubChem BioAssay (NCI)
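Following 48 hours of exposure in 96-well plates, responses at five concentrations were used to interpolate endpoints linearly. GI50 = concentration required for 50% inhibition of growth. The concentration for full growth arrest is given as TGI.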

Assays:
Experiment in all cases: NCI tumour cell line growth inhibition, 48 h
SF-295 CNS = tested on: SF-295 CNS
HS 578T breast = tested on: HS 578T breast
ACHN renal = tested on: ACHN renal
NCI-H23 lung = tested on: NCI-H23 lung
HOP-62 NSCLC = tested on: HOP-62 NSCLC
OVCAR-8 ovarian = tested on: OVCAR-8 ovarian
SF-268 CNS = tested on: SF-268 CNS
NCI/ADR-RES ovarian = tested on: NCI/ADR-RES ovarian
M14 melanoma = tested on: M14 melanoma
MCF7 breast = tested on: MCF7 breast
NCI-H226 lung = tested on: NCI-H226 lung
RPMI-8226 leukemia = tested on: RPMI-8226 leukemia
EKVX NSCLC = tested on: EKVX NSCLC
NCI-H460 lung = tested on: NCI-H460 lung
OVCAR-5 ovarian = tested on: OVCAR-5 ovarian
SK-MEL-28 melanoma = tested on: SK-MEL-28 melanoma
MDA-MB-231 breast = tested on: MDA-MB-231 breast
OVCAR-4 ovarian = tested on: OVCAR-4 ovarian
RXF 393 renal = tested on: RXF 393 renal
KM12 colon = tested on: KM12 colon
SK-MEL-2 melanoma = tested on: SK-MEL-2 melanoma
SW-620 colon = tested on: SW-620 colon
TK-10 renal = tested on: TK-10 renal
U251 CNS = tested on: U251 CNS
UACC-62 melanoma = tested on: UACC-62 melanoma
SNB-75 CNS = tested on: SNB-75 CNS
NCI-H522 lung = tested on: NCI-H522 lung
SNB-19 CNS = tested on: SNB-19 CNS
K-562 leukemia = tested on: K-562 leukemia
T-47D breast = tested on: T-47D breast
CAKI-1 renal = tested on: CAKI-1 renal
SF-539 CNS = tested on: SF-539 CNS
DU-145 prostate = tested on: DU-145 prostate
A549 NSCLC = tested on: A549 NSCLC
UO-31 renal = tested on: UO-31 renal
HCT-15 colon = tested on: HCT-15 colon
OVCAR-3 ovarian = tested on: OVCAR-3 ovarian
BT-549 breast = tested on: BT-549 breast
SK-OV-3 ovarian = tested on: SK-OV-3 ovarian
IGROV1 ovarian = tested on: IGROV1 ovarian
MOLT-4 leukemia = tested on: MOLT-4 leukemia
HOP-92 NSCLC = tested on: HOP-92 NSCLC
LOX IMVI melanoma = tested on: LOX IMVI melanoma
SN12C renal = tested on: SN12C renal
CCRF-CEM leukemia = tested on: CCRF-CEM leukemia
HCC-2998 colon = tested on: HCC-2998 colon
HCT-116 colon = tested on: HCT-116 colon
MDA-MB-435 = tested on: MDA-MB-435
786-0 renal = tested on: 786-0 renal
PC-3 prostate = tested on: PC-3 prostate
HT29 colon = tested on: HT29 colon
UACC-257 melanoma = tested on: UACC-257 melanoma
SK-MEL-5 melanoma = tested on: SK-MEL-5 melanoma
COLO 205 colon = tested on: COLO 205 colon

## O=C(c1ccccc1)n1c(-c2ccccc2)cs/c1=N\S(=O)(=O)c1ccc(N2N=C3c4ccccc4CC3C2c2cccs2)cc1 (stereo not drawn)
SF-295 CNS
  GI50: 37.1 µM
  TGI: > 100 µM
HS 578T breast
  GI50: 17 µM
  TGI: > 100 µM
ACHN renal
  GI50: 43.8 µM
  TGI: > 100 µM
NCI-H23 lung
  GI50: 13 µM
  TGI: 39.4 µM
HOP-62 NSCLC
  GI50: 23.7 µM
  TGI: 57.1 µM
OVCAR-8 ovarian
  GI50: 42.9 µM
  TGI: > 100 µM
SF-268 CNS
  GI50: > 100 µM
  TGI: > 100 µM
NCI/ADR-RES ovarian
  GI50: > 100 µM
  TGI: > 100 µM
M14 melanoma
  GI50: 33 µM
  TGI: > 100 µM
MCF7 breast
  GI50: > 100 µM
  TGI: > 100 µM
NCI-H226 lung
  GI50: 30.1 µM
  TGI: 85.2 µM
RPMI-8226 leukemia
  GI50: 32.3 µM
  TGI: > 100 µM
EKVX NSCLC
  GI50: 40.7 µM
  TGI: > 100 µM
NCI-H460 lung
  GI50: > 100 µM
  TGI: > 100 µM
OVCAR-5 ovarian
  GI50: 34.3 µM
  TGI: > 100 µM
SK-MEL-28 melanoma
  GI50: > 100 µM
  TGI: > 100 µM
MDA-MB-231 breast
  GI50: 41.3 µM
  TGI: > 100 µM
OVCAR-4 ovarian
  GI50: > 100 µM
  TGI: > 100 µM
RXF 393 renal
  GI50: 37.1 µM
  TGI: > 100 µM
KM12 colon
  GI50: 38.3 µM
  TGI: > 100 µM
SK-MEL-2 melanoma
  GI50: > 100 µM
  TGI: > 100 µM
SW-620 colon
  GI50: 58.8 µM
  TGI: > 100 µM
TK-10 renal
  GI50: 30.5 µM
  TGI: 70.7 µM
U251 CNS
  GI50: 32 µM
  TGI: > 100 µM
UACC-62 melanoma
  GI50: 27.3 µM
  TGI: 87.2 µM
SNB-75 CNS
  GI50: > 100 µM
  TGI: > 100 µM
NCI-H522 lung
  GI50: 32.7 µM
  TGI: > 100 µM
SNB-19 CNS
  GI50: 59.3 µM
  TGI: > 100 µM
K-562 leukemia
  GI50: 27.6 µM
  TGI: > 100 µM
T-47D breast
  GI50: > 100 µM
  TGI: > 100 µM
CAKI-1 renal
  GI50: 38 µM
  TGI: > 100 µM
SF-539 CNS
  GI50: 58.6 µM
  TGI: > 100 µM
DU-145 prostate
  GI50: 47 µM
  TGI: > 100 µM
A549 NSCLC
  GI50: 39.5 µM
  TGI: > 100 µM
UO-31 renal
  GI50: 98.1 µM
  TGI: > 100 µM
HCT-15 colon
  GI50: 61.4 µM
  TGI: > 100 µM
OVCAR-3 ovarian
  GI50: 55.2 µM
  TGI: > 100 µM
BT-549 breast
  GI50: 67.9 µM
  TGI: > 100 µM
SK-OV-3 ovarian
  GI50: > 100 µM
  TGI: > 100 µM
IGROV1 ovarian
  GI50: > 100 µM
  TGI: > 100 µM
MOLT-4 leukemia
  GI50: 305 nM
  TGI: 21.2 µM
HOP-92 NSCLC
  GI50: > 100 µM
  TGI: > 100 µM
LOX IMVI melanoma
  GI50: 30.7 µM
  TGI: > 100 µM
SN12C renal
  GI50: 44.4 µM
  TGI: > 100 µM
CCRF-CEM leukemia
  GI50: 41.3 µM
  TGI: > 100 µM
HCC-2998 colon
  GI50: 14 µM
  TGI: 32.6 µM
HCT-116 colon
  GI50: 30.5 µM
  TGI: > 100 µM
MDA-MB-435
  GI50: 31.1 µM
  TGI: > 100 µM
786-0 renal
  GI50: 21.8 µM
  TGI: 96.7 µM
PC-3 prostate
  GI50: 39.2 µM
  TGI: > 100 µM
HT29 colon
  GI50: 73.7 µM
  TGI: > 100 µM
UACC-257 melanoma
  GI50: 45.7 µM
  TGI: > 100 µM
SK-MEL-5 melanoma
  GI50: 24.4 µM
  TGI: > 100 µM
COLO 205 colon
  GI50: 98.1 µM
  TGI: > 100 µM
